Data published in article PMC11823609, “Advancements in the fight against globally distributed OXA-48 carbapenemase: evaluating the new generation of carbapenemase inhibitors” (Antimicrobial Agents and Chemotherapy, 2025).
In brackets after ≈: the same amount, converted by molar mass.

How the values were obtained:
Experiment in all cases: microbe, parasite or virus in culture
E. coli TG1 = format: cell-based; settings: Escherichia coli, β-lactamase inhibitor alone
Method in brief: (§1)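 Triplicate MICs; EUCAST 13.0 breakpoints. Isogenic E. coli TG1 and porin-deficient HB4 expressing OXA-48 ± CTX-M-14. Compounds also tested individually.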

E. coli TG1 (OXA-48) = format: cell-based, Escherichia coli; settings: Escherichia coli
Method in brief: as §1

[1] = test system: E. coli HB4 ΔompC/F (OXA-48); format: cell-based, Escherichia coli; settings: Escherichia coli
Method in brief: as §1

E. coli HB4 ΔompC/F = format: cell-based, Escherichia coli; settings: Escherichia coli
Method in brief: as §1

[2] = test system: E. cloacae strain 231 (MLST 171, No ESBL); format: cell-based; settings: Enterobacter cloacae; E. cloacae 231; β-lactamase inhibitor alone; read-out: MIC
Method in brief: (§2)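 OXA-48-carrying Enterobacterales isolates were chosen as pairs with and without ESBLs. Ertapenem and ceftazidime MICs were then measured with each inhibitor at 4 mg/L, in triplicate, using EUCAST 13.0 breakpoints.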

[3] = test system: E. cloacae strain 235 (MLST 171, ESBL); format: cell-based; settings: Enterobacter cloacae
Method in brief: as §2

[4] = test system: E. cloacae strain 272 (MLST 78, ESBL); format: cell-based; settings: Enterobacter cloacae
Method in brief: as §2

[5] = test system: E. cloacae strain 281 (MLST 78, No ESBL); format: cell-based; settings: Enterobacter cloacae; E. cloacae 281; β-lactamase inhibitor alone; read-out: MIC
Method in brief: as §2

[6] = test system: E. coli strain 103 (MLST 10, ESBL); format: cell-based; settings: Escherichia coli
Method in brief: as §2

[7] = test system: E. coli strain 177 (MLST 131, ESBL); format: cell-based; settings: Escherichia coli
Method in brief: as §2

[8] = test system: E. coli strain 224 (MLST 127, No ESBL); format: cell-based; settings: Escherichia coli; E. coli 224; β-lactamase inhibitor alone; read-out: MIC
Method in brief: as §2

[9] = test system: E. coli strain 264 (MLST 131, No ESBL); format: cell-based; settings: Escherichia coli; E. coli 264; β-lactamase inhibitor alone; read-out: MIC
Method in brief: as §2

[10] = test system: K. pneumoniae strain 125 (MLST 307, ESBL); format: cell-based; settings: Klebsiella pneumoniae
Method in brief: as §2

[11] = test system: K. pneumoniae strain 170 (MLST 307, No ESBL); format: cell-based; settings: Klebsiella pneumoniae; K. pneumoniae 170; β-lactamase inhibitor alone; read-out: MIC
Method in brief: as §2

[12] = test system: K. pneumoniae strain 19 (MLST 11, ESBL); format: cell-based; settings: Klebsiella pneumoniae
Method in brief: as §2

[13] = test system: K. pneumoniae strain 194 (MLST 392, No ESBL); format: cell-based; settings: Klebsiella pneumoniae; K. pneumoniae 194; β-lactamase inhibitor alone; read-out: MIC
Method in brief: as §2

[14] = test system: K. pneumoniae strain 23 (MLST 392, ESBL); format: cell-based; settings: Klebsiella pneumoniae
Method in brief: as §2

[15] = test system: K. pneumoniae strain 237 (MLST 147, No ESBL); format: cell-based; settings: Klebsiella pneumoniae; K. pneumoniae 237; β-lactamase inhibitor alone; read-out: MIC
Method in brief: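 MICs were determined in triplicate against WGS-characterized OXA-48-positive clinical isolates, with EUCAST 13.0 breakpoints applied. Each inhibitor was tested at 4 mg/L combined with ertapenem or ceftazidime as reporter substrates; compounds were also tested alone.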

[16] = test system: K. pneumoniae strain 238 (MLST 15, ESBL); format: cell-based; settings: Klebsiella pneumoniae
Method in brief: as §2

[17] = test system: K. pneumoniae strain 413 (MLST 147, ESBL); format: cell-based; settings: Klebsiella pneumoniae
Method in brief: as §2

[18] = test system: K. pneumoniae strain 497 (MLST 11, No ESBL); format: cell-based; settings: Klebsiella pneumoniae; K. pneumoniae 497; β-lactamase inhibitor alone; read-out: MIC
[19] = test system: K. pneumoniae strain 71 (MLST 15, No ESBL); format: cell-based; settings: Klebsiella pneumoniae; K. pneumoniae 71; β-lactamase inhibitor alone; read-out: MIC
Method in brief: as §2

For `O=C(O)c1c(F)ccc2c1OB(O)[C@@H]1C[C@H]21` [Xeruborbactam, xeruborbactam], the MIC (E. coli TG1) was 32 µg/mL (≈ 144 µM), the MIC (E. coli TG1 (OXA-48)) was 32 µg/mL (≈ 144 µM) and the MIC [1] was 16 µg/mL (≈ 72.1 µM). It also gave an MIC (E. coli HB4 ΔompC/F) of 16 µg/mL (≈ 72.1 µM), an MIC [2] of 32 µg/mL and an MIC [3] of no less than 128 µg/mL. It also gave an MIC [4] of 32 µg/mL, an MIC [5] of 32 µg/mL and an MIC [6] of 64 µg/mL. For the same compound, the MIC [7] was 64 µg/mL, the MIC [8] was 32 µg/mL and the MIC [9] was 32 µg/mL. It also gave an MIC [10] of 32 µg/mL, an MIC [11] of 32 µg/mL and an MIC [12] of 32 µg/mL. It also gave an MIC [13] of 32 µg/mL, an MIC [14] of 32 µg/mL and an MIC [15] of 64 µg/mL. It also gave an MIC [16] of 64 µg/mL, an MIC [17] of 64 µg/mL and an MIC [18] of 64 µg/mL. The MIC [19] was 32 µg/mL.
